Data reported in patent US8283366B2, “Derivatives of pyridoxine for inhibiting HIV integrase” (Ambrilia Biopharma, Inc., priority 2010, dated 2012).
Where two headings read alike, the source gives them in different places.

Columns and labels:
wild type NL-4.3 = assay: Multi-cycle infection assay in MT-4 cells, MTT cytoprotection readout; format: cell-based, HIV-1; settings: read-out: EC50 (nM) multi-cycle
Method: The antiviral efficacies of the integrase inhibitor compounds of the invention were evaluated based on EC50 measures obtained from two different in vitro HIV infection assay using cultured MT-4 cells: (1) a multi-cycle infection where cells were infected with wild type NL-4.3) and (2) a single-cycle infection where the cells were infected with a luciferase-bearing, envelope defective (env-) NL-4.3 virus pseudotyped with HIV-1 env (HXBc2.
The incubation period for the multi-cycle infection assay was 6 days. Cell viability (cytoprotection) and EC50 were determined using the colorimetric MTT assay (A. J. Japour et al, Antimicrobial Agents and Chemotherapy, 37, 1095-1101, 1993 and R. Pauwels et al. Journal of Virological Methods, 20, 309-321, 1988).

[1] = molecular target: T1, recombinant HIV-1 integrase (Human immunodeficiency virus type 1 group M subtype B, UniProt P04585); assay: Integrase strand transfer assay; format: biochemical; settings: compounds added after assembly, 10% DMSO, read-out: ST IC50
T1 construct: recombinant HIV-1 integrase
Method: IC50 was determined for the compounds of the inventions based on data generated in strand transfer assays. The IC50 is a measure of the ability of the compounds tested to inhibit the integration of 3′-processed oligonucleotides by recombinant HIV-1 integrase.
Strand transfer assays were performed essentially as described in Hazuda, D. J.; Felock, P.; Hastings, J. C.; Pramanik, B.; Wolfe, A. J. Virol. 1997, 71, 7005-7011). Donor DNA (1.5 pmol/well), biotinylated on the 5′ end of the strand processed by integrase, was immobilized onto streptavidin-coated microtiter plates. Recombinant integrase (250 ng/well) was assembled onto the immobilized donor oligonucleotide in reaction buffer (20 mM Hepes, pH 7.6, 5 mM B-mercaptoethanol, 50 ug/mL bovine serum albumin) containing 30 mM MnCl2. Excess enzyme was removed, and the complexes were washed extensively prior to the addition of the target DNA substrate. The target DNA (0.75 pmoles/well) substrate was labeled on each 3′ end with FITC. After strand transfer, the FITC-labeled products were detected using an anti-FITC antibody conjugated with alkaline phosphatase (Roche) and a chemi-luminescent substrate (Tropix CSPD with Sapphire II enhancer, Applied Biosystems). The assay was performed in a final concentration of 10% DMSO. To specifically evaluate inhibition of strand transfer, compounds were added after assembly, just prior to the addition of the target DNA.
The results of the integrase strand transfer assay are reported as IC50 values. IC50 values were determined using a sigmoidal dose-response equation. The formula used for calculating % inhibition was: % Inhibition=[1−(sample counts/average of positive control)]*100.

NL4.3 virus = assay: Multi-cycle antiviral activity without and with human serum, p24 ELISA; settings: for Fold-change with HS: EC50 with 40% HS versus 10% FBS alone; for EC50: Human immunodeficiency virus 1, 144 h
Method: The multi-cycle antiviral activity in the absence and presence of human serum was determined by p24 ELISA measurement after 6 days of NL4.3 virus infection.

[2] = Human immunodeficiency virus 1, MT4, 144 h, MT-4 cells, 6 days incubation, MTT
[3] = read-out: EC50 (uM) 10% FBS + 40% HS

| Structure (SMILES) | EC50 (wild type NL-4.3; [2]) [nM] | IC50 [1] [nM] | other results |
| --- | --- | --- | --- |
| Cc1c(C(O)c2ccc(F)cc2)cnc(C(=O)NO)c1O (stereo not drawn) [Example 8, 5-((4-fluorophenyl)(hydroxy)methyl)-N,3-dihydroxy-4-methylpicolinamide] | 8 | – | – |
| CONC(=O)c1ncc(C(O)c2ccc(F)cc2)c(CO)c1O (stereo not drawn) [Example 6, 5-((4-fluorophenyl)(hydroxy)methyl)-3-hydroxy-4-(hydroxymethyl)-N-methoxypicolinamide] | 74 | – | – |
| O=C(NO)c1ncc([C@@H](O)c2ccc(F)c(Cl)c2)c(CO)c1O [Example 11, (S)-5-((3-Chloro-4-fluorophenyl)(hydroxy)methyl)-N,3-dihydroxy-4-(hydroxymethyl)picolinamide] | 2 | 23 | Fold-change with HS (NL4.3 virus): 1; EC50 (NL4.3 virus; read-out: EC50 (uM) 10% FBS): 0.001 µM; EC50 (NL4.3 virus; [3]): 0.001 µM |
| O=C(O)C(O)=CC(=O)c1cc(OCc2ccccc2)cc(OCc2ccccc2)c1 [Example L-708906, reference compound] | – | 45 | EC50 (wild type NL-4.3; MT-4 cells, 6 days incubation, MTT): 5800 nM |
| O=C(NO)c1ncc(C(O)c2ccc(F)cc2)c(CO)c1O (stereo not drawn) [Example 3, 5-((4-fluorophenyl)(hydroxy)methyl)-N,3-dihydroxy-4-(hydroxymethyl)picolinamide] | 2 | – | – |
| CN(O)C(=O)c1ncc(C(O)c2ccc(F)cc2)c(CO)c1O (stereo not drawn) [Example 5, 5-((4-fluorophenyl)(hydroxy)methyl)-N,3-dihydroxy-4-(hydroxymethyl)-N-methylpicolinamide] | 421 | – | – |
| Cc1c(C(=O)c2ccc(F)cc2)cnc(C(=O)NO)c1O [Example 9, 5-(4-fluorobenzoyl)-N,3-dihydroxy-4-methylpicolinamide] | 6680 | – | – |
| Cc1c(/C(=N/O)c2ccc(F)cc2)cnc(C(=O)NO)c1O [Example 10, (E)-5-((4-fluorophenyl)(hydroxyimino)methyl)-N,3-dihydroxy-4-methylpicolinamide] | 49 | – | – |
| O=C(NO)c1ncc(Cc2ccc(F)cc2)c(CO)c1O [Example 2, 5-(4-fluorobenzyl)-N,3-dihydroxy-4-(hydroxymethyl)picolinamide] | 10 | 35 | – |
| O=C(NO)c1ncc([C@H](O)c2ccc(F)c(Cl)c2)c(CO)c1O [Example 1, (R)-5-((3-Chloro-4-fluorophenyl)(hydroxy)methyl)-N,3-dihydroxy-4-(hydroxymethyl)picolinamide] | 4 | 56 | Fold-change with HS (NL4.3 virus): 1; EC50 (NL4.3 virus; read-out: EC50 (uM) 10% FBS): 0.006 µM; EC50 (NL4.3 virus; [3]): 0.006 µM |
| Cc1c(Cc2ccc(F)cc2)cnc(C(=O)NO)c1O [Example 7, 5-(4-fluorobenzyl)-N,3-dihydroxy-4-methylpicolinamide] | 21 | – | – |
| Cc1nnc(C(=O)NC(C)(C)c2nc(C(=O)NCc3ccc(F)cc3)c(O)c(=O)n2C)o1 [Raltegravir, reference compound] | – | – | EC50 (NL4.3 virus; read-out: EC50 (uM) 10% FBS): 0.047 µM; EC50 (NL4.3 virus; [3]): 0.064 µM; EC50 (wild type NL-4.3; Human immunodeficiency virus 1, MT4, 144 h): 20 nM |
